From patent US20060111335A1, “Photoactivated anti-viral and anti-cancer agent” (priority 2002, published 2006)
Like-named read-outs stand apart in the source and are kept apart here.

Key:
Calf thymus DNA = assay: Dark association with DNA, UV-Visible titration (Example XI); format: binding; conditions: 50 mM pH 7 I=0.15 sodium phosphate buffer (physiological condition)
Method: Preparation of DNA solution. Calf thymus DNA (Sigma) was dissolved in 50 mM, pH 7, I=0.15 sodium phosphate buffer (Physiological condition) and sonicated. The purity of the DNA was checked by monitoring the absorption spectrum and the ratio of the absorbance at 260 to 280 nm. The ratio were within the acceptable purity margin (1.8±0.1). The concentration of the Calf thymus DNA per phosphate was determined spectrophotometrically: ε253=6600 for calf thymus DNA^1. The concentration was 2.13 E-3 M.
The resulting solution was diluted 4 times with phosphate buffer. […] 0, 50 μL, 150 μL, 200 μL, 300 μL, 350 μL and 500 μL of DNA solutions were added, mixed well with a small disposable needle, and spectra were recorded again. The concentration of the species, the apparent absorbance at 337 nm, and the apparent extinction coefficients at 337 nm were determined from the absorptions spectra and tabulated in Table 1.
The apparent binding constant, Kapp was determined from the plot of [DNA]/Δεapp versus [DNA], where Δεapp=εf−εapp and Δε=εf−εb^2, where εb and εf correspond to the extinction coefficient of the DNA-bound form of the OCTBP derivatives and the extinction coefficient of the DNA-unbound OCTBP derivatives, respectively. […] Cb=(εfCtotal−Aobserved)/Δε The concentration of the DNA-unbound OCTBP derivatives (Cf) can be determined by Cf=Ctotal−Cb […]

cells = assay: Phototoxicity, summary statement of Example XII; format: cell-based
[1] = Reversed phase HPLC elution on C8 column as measure of hydrophobicity; format: physicochemical; conditions: 45% acetonitrile in 100 mM ammonium acetate pH 5.4
Method: Reversed phase high performance liquid chromatography (RP-HPLC) was carried out on C8 columns. Compounds were tested using 20%, 30% and 45% acetonitrile in 100 mM ammonium acetate at pH 5.4 for elution on a C8 column, with the intention of achieving an elution time of about 15 minutes. It was expected that the more hydrophobic a compound, the higher the acetonitrile content one would need for the eluent.

φX-174 plasmid DNA = assay: Photonicking of φX-174 plasmid DNA, gel electrophoresis; format: biochemical; conditions: Example IX, dark and upon exposure to light
Method: Photolysis with φX-174 Plasmid DNA. Metal complex solutions (with or without quenchers) were saturated with oxygen or argon prior to irradiation. The solutions were further degassed after being mixed with the plasmid. The final solution concentrations were: DPPZPHEN ([…]), φX-174 plasmid DNA (205 μM in base pairs), superoxide dismutase (25 μg/mL), 2-propanol (0.5 M), mannitol (6.25 mM), histidine (8 mM).
Experiments were conducted as described in Example X to evaluate the amount photonicking that occurred in the dark and upon exposure to light for 37TMBP, 56TMBP, OCTBP, BISNMe2, TMOBP, TIOBP, TPBP, BISTAP and BISDPPZ.

GN4 cells = assay: Phototoxicity to GN4 tumor cells, MTT assay; format: cell-based, canine
Method: (§1) Photolysis with Tumor Cells.
Media was decanted from the flask. […] Trypsin-EDTA was then decanted and the flask was incubated at 37° C. for 8 minutes. […] Released cells were suspended in 5 mL of media and shaken well. […] The remaining cells were discarded.
Cells were plated, incubated with the drug, and photolysis was conducted as for the KB cell lines.

cell membrane = assay: Cell uptake / passage through the cell membrane
Method: OCTBP uptake by KB cells. 11 mg of OCTBP was dissolved in 40 mL of PBS buffer. The solution was vortex stirred for 5 minutes to completely dissolve the solid. The solution was sterile filtered through a 0.2μ nylon syringe filter. The concentration of the solution was determined by measuring the UV absorption at 353 nm (ε353nm=1565 M^−1cm^−1).
Once the cells were 75% confluent media was decanted from the flasks and 8 mL of drug solutions were added to three flasks and 8 mL of PBS buffer solution was added to the control flask. The flasks were incubated at 37° C. for 15, 30 and 45 minutes. Control flask was incubated for 45 minutes. When the flasks were removed, they were washed with 6×10 mL of PBS buffer solution. All the liquid was carefully decanted from the flasks. 1 mL of lysing buffer (1% triton X-100) was added to each of the four flasks. The walls of the flasks were rinsed using disposable pipettes. Once all the contents of the flasks were placed into a 1.5 mL disposable centrifuge tubes (each flask yielded ˜1.2 mL), the tubes were centrifuged at 6000 rpm and at 4° C. for 30 minutes on the Fisher Model 59V high-speed centrifuge. BCA Assay was done to establish the amount of cells in each flask.
Rh content of each flask was determined using an inductively coupled plasma (ICP) instrument (AtomScan16, Thermo Elemental, Franklin, Mass.). From each centrifuge tube 1 mL was pipetted and 370 μL of concentrated HCl was added to form a 10% solution. The samples were heated in a hot water bath at 70° C. for 30 minutes. The samples were centrifuged again and the supernatant liquid was diluted to 8 mL by adding nano-pure water. The samples were analyzed for Rh content by ICP.

KB cells = assay: Phototoxicity to KB tumor cells, MTT assay
Method: Photolysis with Tumor Cells. […] At the beginning of an experiment media was removed from all plates and the cells were washed with 1 mL of PBS or Hank's salt solution. Drug solution (2 mL) or buffer solution (2 mL) was added to each dish. […] Cells were incubated, with or without metal complex, for 4 hours. After incubation, the solutions were removed from the dishes and the dishes were washed with 1 mL of PBS or Hank's salt solution. A fresh 1 mL of PBS or Hank's salt solution was added to each dish and these were placed on a turntable that sat on the top part of the photolysis chamber. […] The plates were then incubated for 40-48 hours before a determination of the extent of cell toxicity by MTT assay.
Cells were incubated in 75 cm^2 culture flasks. They were grown in Dulbecco's Modified Eagles Medium (D-MEM) supplemented with 10% heat inactivated fetal bovine serum (FBS), 1% L-glutamine-penicillin-streptomycin and 1% amphotericin-B. When cells were not plated for use in an experiment, they were transferred when they were 75-100% confluent using the following procedure. Media was decanted from the flask. Cells were rinsed 1-2 times with 10 mL of Hank's Balanced salt solution. […] Trypsin-EDTA was then decanted and the cells were released from the wall of the flask by tapping the side of the flask. Released cells were suspended in 5 mL media and 1 mL of this suspension was placed in a new culture flasks containing 20 mL of fresh media. The remaining cells were discarded. A culture flask can be used for 3 transfers.
Usually 16-24 hours before a photolysis experiment, cells were plated in 35×10 mm tissue culture dishes and incubated at 37° C. until the experiment was begun. Cells were about 75-100% confluent in the 75 cm^2 culture flask when plated. After being washed and released from the flask as described above, cells were suspended in 40 mL media and 1.5 mL of suspension was placed in each dish.
The concentration of the solution was 70 μM.
The cell dishes were incubated with drug or Hanks balanced salt solution (1 mL) for 3 hours. After incubation, solutions were decanted from the plates and 1 mL of Hank's Balanced salt solution were placed in each. […] Following photolysis, Hank's Balanced salt solutions were decanted and 1 mL of fresh media was placed in each plate.
Plates were incubated for 65 hours and then analyzed for cell survival by MT assay. 5 mg/mL MTT solution in water was prepared and 100 μL of this solution was added to each plate and the plates were incubated for 1.5 hours. Purple crystals formed from live cells. Media was gently removed from plates using a Pasteur pipette, the purple crystals that remained at the bottom of the dish were dissolved in 6 mL of isopropanol.
Phototoxicity studies with long wavelength light (>400 nm). […]

[2] = system: calf thymus DNA than BSA protein; assay: In vitro kinetic and thermodynamic studies of affinity, DNA versus protein; format: binding
M109 cells = assay: Phototoxicity to M109 tumor cells, MTT assay; format: cell-based, mouse; conditions: OCTBP, 55 μM (FIG. 10)
Method: as §1
Procedures for cell maintenance, cell plating, drug incubation, photolysis and MTT assay are all same as that used for the KB cell lines. A small amount of dark toxicity was observed (about 15%). A considerable amount of killing occurs with light alone after 30 and 40 minutes of irradiation (FIG. 10).

[3] = Dark thermal aquation and thermal base hydrolysis; format: physicochemical; conditions: 80° C. with 10% NaOH
Source text: A dissociation/addition mechanism is generally accepted as responsible for the substitution chemistry associated with a hexacoordinated Rh(III) ligand field triplet (Weiland et al., Inorg. Chem., 25:4893 (1986)). The dissociation step is due to the promotion of an electron from the t2g orbital to the eg orbital, which leads to significant weakening of the metal ligand bonds. (Hipps et al., Inorg. Chem., 13:1544 (1974)).

[4] = Photodestruction (photoaquation) with visible light >500 nm, HPLC analysis; format: physicochemical; conditions: 0.1 mM aqueous, 8 hours under argon
Method: Aqueous solutions (3 mL, 0.1 mM) of the Rh complexes were irradiated for 8 hours under argon using a 450 W Hanovia medium pressure mercury lamp filtered through a uranium yellow glass (cut-off<330 nm) and a 1.5 cm 0.5% (w/v) aqueous solution of K2Cr2O7 (0% transmittance≦500 nm). Photodestruction of the metal complexes was followed by HPLC analysis.

protein = conditions: cited from earlier work
bacteriophage φ6 = conditions: cited from earlier work
Sindbis virus = conditions: cited from earlier work
[5] = cited from earlier work
nucleic acid = conditions: cited from earlier work
cell = conditions: cited from earlier work
DNA = conditions: dark; cited from earlier work

CC1=C[N]2c3c4c(ccc3=C1C)=C(C)C(C)=C[N]4[Rh+]21([Cl])([Cl])[N]2C=C(C)C(C)=c3ccc4c(c32)[N]1C=C(C)C=4C.[Cl-] [OCTBP, cis-dichlorobis(3,4,7,8-tetramethyl-1,10-phenanthroline) rhodium(III) chloride]
apparent (intrinsic) binding constant Kapp (Calf thymus DNA): 4.25 E3 M | phototoxicity (cells): are phototoxic | elution time [1]: about 15 minutes | photonicking of φX-174 plasmid DNA (φX-174 plasmid DNA): Only TPBP, BISTAP, BISDPPZ and BISDPPHEN complexes were found to photonick | photo-cell death (GN4 cells; OCTBP 55 μM, 311 nm): no photo-cell death occurred | cell death (GN4 cells; OCTBP 63 μM, >400 nm light, 60 minutes): 25% | photo-initiated cell death (GN4 cells; OCTBP 75 μM, 311 nm, 40 minutes): about 20% | ability to pass through the cell membrane (cell membrane): able to pass through the cell membrane | cell death (KB cells; OCTBP 55 μM, >400 nm light, 60 minutes): 40% | dark toxicity (KB cells; OCTBP 70 μM): dark toxicity wasn't observed | dark toxicity (KB cells; OCTBP 80 μM): considerable amount of dark toxicity | affinity toward calf thymus DNA compared with BSA protein [2]: greater affinity toward calf thymus DNA than BSA protein | dark toxicity (M109 cells): about 15% | thermal hydrolysis, rank order [3]: OCTBP≅37TMBP>BISPHEN | photodestruction [4]: 9.3 % loss

[Cl-].[Cl][Rh+]12([Cl])([N]=c3c(c4ccccc4c4ccccc34)=[N]1)[N]1C=CC=c3ccc4c(c31)[N]2C=CC=4 [PHENPHI, cis-dichloro(1,10-phenanthroline)(9,10-phenathrenequinone diimine)rhodium(III) chloride]
binding affinity for protein (protein): substantial binding affinity for protein | activity against bacteriophage φ6 (bacteriophage φ6): potent virucidal activity | phototoxicity / virucidal activity against Sindbis virus (Sindbis virus): potent virucidal activity | stability ([5]; 37° C., phosphate-buffered saline (PBS) pH 7): decomposing | ligand exchange ([5]; acetate buffer pH 5): readily substitutes acetate for chloride ligand | stability ([5]; room temperature, Tris buffer pH 7): decomposing | photonuclease activity (nucleic acid): exhibited photonuclease activity | covalent binding to nucleic acid upon irradiation (nucleic acid; irradiated with light): covalently binds to DNA | photoinduced cell death (cell): substantial photoinduced cell death | penetration of the cell membrane (cell; without liposomes): does not require liposomes to penetrate the cell membrane | Keq of dark association with DNA (DNA): 37000 M⁻¹
